Measured values as given in the supplement of paper PMC10307832.

Columns and labels:
Assay in all cases: relative viability (nuclei count vs DMSO), 5 days (fraction); higher = more cells survive
CUDC-101 + Navitoclax = compound: C#Cc1cccc(Nc2ncnc3cc(OC)c(OCCCCCCC(=O)NO)cc23)c1 [CUDC-101] + CC1(C)CCC(c2ccc(Cl)cc2)=C(CN2CCN(c3ccc(C(=O)NS(=O)(=O)c4ccc(N[C@H](CCN5CCOCC5)CSc5ccccc5)c(S(=O)(=O)C(F)(F)F)c4)cc3)CC2)C1 [Navitoclax] (partner 0.5 µM)
Method in brief: (§1)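 Cells from lung cancer lines were seeded into 1536-well plates and, one day later, dosed by pin tool. Treatments were either a single drug or a fixed dose of an anchor drug with five library-drug doses (not always all listed) in √10 steps. After 5 days, nuclei were stained in a one-step fixation (final 0.05% Triton X-100, 1% formaldehyde, 1 ug/ml Hoechst) and counted on 4× images, and relative viability is the treated-to-vehicle nuclei ratio, as the median of duplicate plates.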

NVP-TAE684 + Navitoclax = compound: COc1cc(N2CCC(N3CCN(C)CC3)CC2)ccc1Nc1ncc(Cl)c(Nc2ccccc2S(=O)(=O)C(C)C)n1 [NVP-TAE684] + CC1(C)CCC(c2ccc(Cl)cc2)=C(CN2CCN(c3ccc(C(=O)NS(=O)(=O)c4ccc(N[C@H](CCN5CCOCC5)CSc5ccccc5)c(S(=O)(=O)C(F)(F)F)c4)cc3)CC2)C1 [Navitoclax] (partner 0.5 µM)
Method in brief: as §1

NVP-TAE684 + Crizotinib = compound: COc1cc(N2CCC(N3CCN(C)CC3)CC2)ccc1Nc1ncc(Cl)c(Nc2ccccc2S(=O)(=O)C(C)C)n1 [NVP-TAE684] + C[C@@H](Oc1cc(-c2cnn(C3CCNCC3)c2)cnc1N)c1c(Cl)ccc(F)c1Cl [Crizotinib] (partner 1 µM)
Method in brief: as §1

Vandetanib + Olaparib = compound: COc1cc2/c(=N/c3ccc(Br)cc3F)nc[nH]c2cc1OCC1CCN(C)CC1 [Vandetanib] + O=C(c1cc(Cc2n[nH]c(=O)c3ccccc23)ccc1F)N1CCN(C(=O)C2CC2)CC1 [Olaparib] (partner 8 µM)
Method in brief: as §1

NVP-TAE684 + Pemetrexed = compound: COc1cc(N2CCC(N3CCN(C)CC3)CC2)ccc1Nc1ncc(Cl)c(Nc2ccccc2S(=O)(=O)C(C)C)n1 [NVP-TAE684] + Nc1nc2[nH]cc(CCc3ccc(C(=O)N[C@@H](CCC(=O)O)C(=O)O)cc3)c2c(=O)[nH]1 [Pemetrexed] (partner 0.2 µM)
Method in brief: as §1

EPLC-272H
relative viability (CUDC-101 + Navitoclax; first compound 0.01 µM): 1.42
relative viability (CUDC-101 + Navitoclax; first compound 0.03162 µM): 1.2
relative viability (CUDC-101 + Navitoclax; first compound 0.1 µM): 1.15
relative viability (CUDC-101 + Navitoclax; first compound 0.3162 µM): 0.871
relative viability (CUDC-101 + Navitoclax; first compound 1 µM): 0.59
relative viability (NVP-TAE684 + Navitoclax; first compound 0.2 µM): 1.02
relative viability (NVP-TAE684 + Navitoclax; first compound 2 µM): 1.48
relative viability (NVP-TAE684 + Crizotinib; first compound 0.2 µM): 0.898
relative viability (NVP-TAE684 + Crizotinib; first compound 2 µM): 0.873
relative viability (Vandetanib + Olaparib; first compound 0.02 µM): 0.969
relative viability (Vandetanib + Olaparib; first compound 0.06325 µM): 0.526
relative viability (Vandetanib + Olaparib; first compound 0.2 µM): 1.19
relative viability (Vandetanib + Olaparib; first compound 0.6325 µM): 0.854
relative viability (Vandetanib + Olaparib; first compound 2 µM): 0.49
relative viability (NVP-TAE684 + Pemetrexed; first compound 0.2 µM): 0.425
relative viability (NVP-TAE684 + Pemetrexed; first compound 0.6325 µM): 0.297
relative viability (NVP-TAE684 + Pemetrexed; first compound 2 µM): 0.15

A-427
relative viability (CUDC-101 + Navitoclax; first compound 0.01 µM): 0.978
relative viability (CUDC-101 + Navitoclax; first compound 0.03162 µM): 0.919
relative viability (CUDC-101 + Navitoclax; first compound 0.1 µM): 0.939
relative viability (CUDC-101 + Navitoclax; first compound 0.3162 µM): 0.926
relative viability (CUDC-101 + Navitoclax; first compound 1 µM): 0.924
relative viability (NVP-TAE684 + Navitoclax; first compound 0.2 µM): 0.992
relative viability (NVP-TAE684 + Navitoclax; first compound 2 µM): 0.874
relative viability (NVP-TAE684 + Crizotinib; first compound 2 µM): 0.512
relative viability (Vandetanib + Olaparib; first compound 0.02 µM): 0.735
relative viability (Vandetanib + Olaparib; first compound 0.06325 µM): 0.852
relative viability (Vandetanib + Olaparib; first compound 0.2 µM): 0.71
relative viability (Vandetanib + Olaparib; first compound 0.6325 µM): 0.711
relative viability (Vandetanib + Olaparib; first compound 2 µM): 0.694
relative viability (NVP-TAE684 + Pemetrexed; first compound 0.6325 µM): 0.914
relative viability (NVP-TAE684 + Pemetrexed; first compound 2 µM): 0.788

NCI-H1755
relative viability (CUDC-101 + Navitoclax; first compound 0.01 µM): 0.984
relative viability (CUDC-101 + Navitoclax; first compound 0.03162 µM): 1.01
relative viability (CUDC-101 + Navitoclax; first compound 0.1 µM): 0.995
relative viability (CUDC-101 + Navitoclax; first compound 0.3162 µM): 1.02
relative viability (CUDC-101 + Navitoclax; first compound 1 µM): 0.951
relative viability (NVP-TAE684 + Navitoclax; first compound 0.2 µM): 1.06
relative viability (NVP-TAE684 + Navitoclax; first compound 0.6325 µM): 1.06
relative viability (NVP-TAE684 + Navitoclax; first compound 2 µM): 0.921
relative viability (NVP-TAE684 + Crizotinib; first compound 0.2 µM): 0.991
relative viability (NVP-TAE684 + Crizotinib; first compound 0.6325 µM): 0.893
relative viability (NVP-TAE684 + Crizotinib; first compound 2 µM): 0.681
relative viability (Vandetanib + Olaparib; first compound 0.02 µM): 0.917
relative viability (Vandetanib + Olaparib; first compound 0.06325 µM): 0.863
relative viability (Vandetanib + Olaparib; first compound 0.2 µM): 0.848
relative viability (Vandetanib + Olaparib; first compound 0.6325 µM): 0.822
relative viability (Vandetanib + Olaparib; first compound 2 µM): 0.863
relative viability (NVP-TAE684 + Pemetrexed; first compound 0.2 µM): 0.394
relative viability (NVP-TAE684 + Pemetrexed; first compound 0.6325 µM): 0.583
relative viability (NVP-TAE684 + Pemetrexed; first compound 2 µM): 0.384

NCI-H838
relative viability (CUDC-101 + Navitoclax; first compound 0.01 µM): 1.23
relative viability (CUDC-101 + Navitoclax; first compound 0.03162 µM): 1.1
relative viability (CUDC-101 + Navitoclax; first compound 0.1 µM): 1.3
relative viability (CUDC-101 + Navitoclax; first compound 0.3162 µM): 1.21
relative viability (CUDC-101 + Navitoclax; first compound 1 µM): 0.985
relative viability (NVP-TAE684 + Navitoclax; first compound 0.2 µM): 1.43
relative viability (NVP-TAE684 + Navitoclax; first compound 0.6325 µM): 1.09
relative viability (NVP-TAE684 + Navitoclax; first compound 2 µM): 0.403
relative viability (NVP-TAE684 + Crizotinib; first compound 0.2 µM): 0.962
relative viability (NVP-TAE684 + Crizotinib; first compound 0.6325 µM): 0.78
relative viability (NVP-TAE684 + Crizotinib; first compound 2 µM): 0.522
relative viability (Vandetanib + Olaparib; first compound 0.02 µM): 0.773
relative viability (Vandetanib + Olaparib; first compound 0.06325 µM): 0.769
relative viability (Vandetanib + Olaparib; first compound 0.2 µM): 0.776
relative viability (Vandetanib + Olaparib; first compound 0.6325 µM): 0.764
relative viability (Vandetanib + Olaparib; first compound 2 µM): 0.74
relative viability (NVP-TAE684 + Pemetrexed; first compound 0.2 µM): 0.25
relative viability (NVP-TAE684 + Pemetrexed; first compound 0.6325 µM): 0.239
relative viability (NVP-TAE684 + Pemetrexed; first compound 2 µM): 0.17

NCI-H2228
relative viability (CUDC-101 + Navitoclax; first compound 0.01 µM): 0.941
relative viability (CUDC-101 + Navitoclax; first compound 0.03162 µM): 0.646
relative viability (CUDC-101 + Navitoclax; first compound 0.1 µM): 0.607
relative viability (CUDC-101 + Navitoclax; first compound 0.3162 µM): 1.11
relative viability (CUDC-101 + Navitoclax; first compound 1 µM): 0.846
relative viability (NVP-TAE684 + Navitoclax; first compound 0.2 µM): 0.443
relative viability (NVP-TAE684 + Navitoclax; first compound 0.6325 µM): 0.421
relative viability (NVP-TAE684 + Navitoclax; first compound 2 µM): 0.129
relative viability (NVP-TAE684 + Crizotinib; first compound 0.2 µM): 0.476
relative viability (NVP-TAE684 + Crizotinib; first compound 0.6325 µM): 0.42
relative viability (NVP-TAE684 + Crizotinib; first compound 2 µM): 0.139
relative viability (Vandetanib + Olaparib; first compound 0.02 µM): 0.65
relative viability (Vandetanib + Olaparib; first compound 0.06325 µM): 0.566
relative viability (Vandetanib + Olaparib; first compound 0.2 µM): 0.719
relative viability (Vandetanib + Olaparib; first compound 0.6325 µM): 0.661
relative viability (Vandetanib + Olaparib; first compound 2 µM): 0.559
relative viability (NVP-TAE684 + Pemetrexed; first compound 0.2 µM): 0.29
relative viability (NVP-TAE684 + Pemetrexed; first compound 0.6325 µM): 0.332
relative viability (NVP-TAE684 + Pemetrexed; first compound 2 µM): 0.121

EKVX
relative viability (CUDC-101 + Navitoclax; first compound 0.01 µM): 0.972
relative viability (CUDC-101 + Navitoclax; first compound 0.03162 µM): 0.977
relative viability (CUDC-101 + Navitoclax; first compound 0.1 µM): 0.874
relative viability (CUDC-101 + Navitoclax; first compound 0.3162 µM): 0.941
relative viability (CUDC-101 + Navitoclax; first compound 1 µM): 0.593
relative viability (NVP-TAE684 + Navitoclax; first compound 0.2 µM): 0.994
relative viability (NVP-TAE684 + Navitoclax; first compound 0.6325 µM): 0.907
relative viability (NVP-TAE684 + Navitoclax; first compound 2 µM): 0.613
relative viability (NVP-TAE684 + Crizotinib; first compound 0.2 µM): 0.775
relative viability (NVP-TAE684 + Crizotinib; first compound 0.6325 µM): 0.859
relative viability (NVP-TAE684 + Crizotinib; first compound 2 µM): 0.582
relative viability (Vandetanib + Olaparib; first compound 0.02 µM): 0.854
relative viability (Vandetanib + Olaparib; first compound 0.06325 µM): 0.761
relative viability (Vandetanib + Olaparib; first compound 0.2 µM): 0.904
relative viability (Vandetanib + Olaparib; first compound 0.6325 µM): 0.813
relative viability (Vandetanib + Olaparib; first compound 2 µM): 0.563
relative viability (NVP-TAE684 + Pemetrexed; first compound 0.2 µM): 0.376
relative viability (NVP-TAE684 + Pemetrexed; first compound 0.6325 µM): 0.337
relative viability (NVP-TAE684 + Pemetrexed; first compound 2 µM): 0.254

NCI-H1650
relative viability (CUDC-101 + Navitoclax; first compound 0.01 µM): 1.22
relative viability (CUDC-101 + Navitoclax; first compound 0.03162 µM): 0.967
relative viability (CUDC-101 + Navitoclax; first compound 0.1 µM): 1.28
relative viability (CUDC-101 + Navitoclax; first compound 0.3162 µM): 1.1
relative viability (CUDC-101 + Navitoclax; first compound 1 µM): 0.85
relative viability (NVP-TAE684 + Navitoclax; first compound 0.6325 µM): 1.08
relative viability (NVP-TAE684 + Navitoclax; first compound 2 µM): 0.545
relative viability (NVP-TAE684 + Crizotinib; first compound 0.2 µM): 0.899
relative viability (NVP-TAE684 + Crizotinib; first compound 0.6325 µM): 0.89
relative viability (NVP-TAE684 + Crizotinib; first compound 2 µM): 1
relative viability (Vandetanib + Olaparib; first compound 0.02 µM): 0.753
relative viability (Vandetanib + Olaparib; first compound 0.06325 µM): 0.827
relative viability (Vandetanib + Olaparib; first compound 0.2 µM): 0.756
relative viability (Vandetanib + Olaparib; first compound 0.6325 µM): 0.792
relative viability (Vandetanib + Olaparib; first compound 2 µM): 0.572
relative viability (NVP-TAE684 + Pemetrexed; first compound 0.2 µM): 0.382
relative viability (NVP-TAE684 + Pemetrexed; first compound 0.6325 µM): 0.35
relative viability (NVP-TAE684 + Pemetrexed; first compound 2 µM): 0.353

HCC-827
relative viability (CUDC-101 + Navitoclax; first compound 0.01 µM): 1.1
relative viability (CUDC-101 + Navitoclax; first compound 0.03162 µM): 0.66
relative viability (CUDC-101 + Navitoclax; first compound 0.1 µM): 0.271
relative viability (CUDC-101 + Navitoclax; first compound 0.3162 µM): 0.184
relative viability (CUDC-101 + Navitoclax; first compound 1 µM): 0.167
relative viability (NVP-TAE684 + Navitoclax; first compound 0.2 µM): 0.935
relative viability (NVP-TAE684 + Navitoclax; first compound 0.6325 µM): 0.982
relative viability (NVP-TAE684 + Navitoclax; first compound 2 µM): 0.978
relative viability (NVP-TAE684 + Crizotinib; first compound 0.2 µM): 0.914
relative viability (NVP-TAE684 + Crizotinib; first compound 0.6325 µM): 0.907
relative viability (NVP-TAE684 + Crizotinib; first compound 2 µM): 0.868
relative viability (Vandetanib + Olaparib; first compound 0.02 µM): 0.629
relative viability (Vandetanib + Olaparib; first compound 0.06325 µM): 0.653
relative viability (Vandetanib + Olaparib; first compound 0.2 µM): 0.627
relative viability (Vandetanib + Olaparib; first compound 0.6325 µM): 0.309
relative viability (Vandetanib + Olaparib; first compound 2 µM): 0.152
relative viability (NVP-TAE684 + Pemetrexed; first compound 0.2 µM): 0.259
relative viability (NVP-TAE684 + Pemetrexed; first compound 0.6325 µM): 0.262
relative viability (NVP-TAE684 + Pemetrexed; first compound 2 µM): 0.261
